According to patent publication US8507541B2, “N-hydroxyamidinoheterocycles as modulators of indoleamine 2,3-dioxygenase” (Incyte Corporation, priority 2006, dated 2013):

Assays:
[1] = tested on: LLC tumors; details: LLC tumors in C57Bl/6 mice, versus placebo (Friberg et al); cited from earlier work
[2] = tested on: P815 tumor; details: pre-immunized immune-competent mice, P815 (Uyttenhove et al); cited from earlier work
[3] = target: T1, Human idoleamine 2,3-dioxygenase (IDO) (Homo sapiens, UniProt P14902); assay: Human indoleamine 2,3-dioxygenase (IDO) enzyme assay; type: biochemical; details: 95 nM IDO, 2 mM D-Trp, pH 6.5, room temperature, absorbance at 321 nm
T1 construct: His tag (N); made in house; host or cells: E. coli
T1 sequence (P14902 whole entry): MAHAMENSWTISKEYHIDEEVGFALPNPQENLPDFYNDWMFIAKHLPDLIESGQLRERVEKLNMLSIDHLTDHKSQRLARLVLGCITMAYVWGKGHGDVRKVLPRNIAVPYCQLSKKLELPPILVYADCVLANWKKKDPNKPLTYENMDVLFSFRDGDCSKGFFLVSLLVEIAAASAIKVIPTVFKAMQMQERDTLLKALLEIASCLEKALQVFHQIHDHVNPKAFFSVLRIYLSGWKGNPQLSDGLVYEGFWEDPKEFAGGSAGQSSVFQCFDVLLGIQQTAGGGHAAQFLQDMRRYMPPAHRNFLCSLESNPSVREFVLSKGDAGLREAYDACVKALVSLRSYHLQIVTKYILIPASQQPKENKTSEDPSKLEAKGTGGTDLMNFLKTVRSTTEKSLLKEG
Method: Human idoleamine 2,3-dioxygenase (IDO) with an N-terminal His tag was expressed in E. coli and purified to homogeneity. IDO catalyzes the oxidative cleavage of the pyrrole ring of the indole nucleus of tryptophan to yield N′-formylkynurenine. The assays were performed at room temperature as described in the literature using 95 nM IDO and 2 mM D-Trp in the presence of 20 mM ascorbate, 5 μM methylene blue and 0.2 mg/mL catalase in 50 mM potassium phosphate buffer (pH 6.5). The initial reaction rates were recorded by continuously following the absorbance increase at 321 nm due to the formation of N′-formylkynurenine. […] The symbol “+” indicates IC50<1000 […].

IC50 [3] | SMILES | formation of tumors [1] | growth of tumors [2]
– | Cn1cc(C[C@H](N)C(=O)O)c2ccccc21 [Example 1-MT, 1-methyl-tryptophan] | markedly delayed | inhibited
> 10 µM | ON=C(Nc1ccc(F)c(Cl)c1)c1cc(OCCCN2CCCC2)no1 [Example 2, N-(3-Chloro-4-fluorophenyl)-N′-hydroxy-3-(3-pyrrolidin-1-ylpropoxy)isoxazole-5-carboximidamide] | – | –
> 10 µM | ON=C(Nc1ccc(F)c(Cl)c1)c1cc(N2CCOCC2)no1 [Example 3, N-(3-Chloro-4-fluorophenyl)-N′-hydroxy-3-morpholin-ylisoxazole-5-carboximidamide] | – | –
> 10 µM | CC(=O)Nc1cc(C(=NO)NCc2cc(Cl)ccc2C)on1 [Example 22, N-[5-[(5-chloro-2-methylbenzyl)amino](hydroxyimino)methyl]isoxazol-3-ylacetamide] | – | –
